Laboratory results published in PMC3010440 (Journal of ethnopharmacology, 2010).
“And” between values parts separate entries of the source, which are not always exact repeats. Identical values can stand only once. Like-named read-outs stand apart in the source and are kept apart here.

Tests used:
Assay type in all cases: cell-based
[1] = tested on: Plasmodium falciparum Dd2; experiment: Antiplasmodial pLDH assay, chloroquine-resistant strain Dd2; conditions: for Resistance index (RI): RI = IC50 Dd2 / IC50 D10
[2] = tested on: Plasmodium falciparum D10; experiment: Antiplasmodial pLDH assay, chloroquine-sensitive strain D10
[3] = tested on: Chinese Hamster Ovarian (CHO) cell line; experiment: Cytotoxicity MTT assay; conditions: for CHO Cell line (IC50) / IC50: triplicate; for Selectivity index (SI): SI = IC50 CHO / IC50 D10; for IC50: read-out: CHO Cell line (IC50)
[4] = Plasmodium falciparum, DD2, read-out: Plasmodium falciparum Dd2: IC50
[5] = Plasmodium falciparum, D10, read-out: Plasmodium falciparum D10 (IC50)
[6] = CQ-resistant Dd2 strain, pLDH, triplicate, ten point dose response
[7] = read-out: Plasmodium falciparum Dd2: IC50, CQ-resistant Dd2 strain, pLDH, triplicate, ten point dose response
[8] = CQ-sensitive D10 strain, pLDH, triplicate, ten point dose response
[9] = read-out: Plasmodium falciparum D10 (IC50), CQ-sensitive D10 strain, pLDH, triplicate, ten point dose response

Compound	IC50 [1, 4]	IC50 [2, 5]	Cytotoxicity (in words) [3]	CHO Cell line (IC50) ([3]; CHO cells, MTT) [µg/mL]	Selectivity index (SI) [3]	IC50 ([3]; CHO cells, MTT) [µM]	Plasmodium falciparum Dd2: IC50 [1, 6] [µg/mL]	Resistance index (RI) [1]	IC50 [1, 7] [µM]	Plasmodium falciparum D10 (IC50) [2, 8] [µg/mL]	IC50 [2, 9] [µM]	Cytotoxicity (in words) ([3]; CHO cells, MTT)
CCN(CC)CCCC(C)Nc1ccnc2cc(Cl)ccc12 (stereo not drawn) [Chloroquine, Chloroquine diphosphate, reference compound]	0.07 µg/mL and 230 nM	0.01 µg/mL and 30 nM	–	–	–	–	–	–	–	–	–	–
O[C@@H]1c2ccccc2-c2c3c(cc4c2[C@@H]1NCC4)OCO3 [Compound 2, norushinsunine]	–	–	no observable cytotoxicity	> 100	> 3	> 300	30.9 ± 2.3	1.0	110 ± 8.1	29.6 ± 3.9	105 ± 13.9	–
COc1cc2c(cc1OC)-c1c(OC)c(OC)cc3c1[C@H](C2)NCC3 [Compound 3, norglaucine]	–	–	–	> 100	> 5	> 300	32.2 ± 1.3	1.5	94.3 ± 3.8	22.0 ± 2.8	64.4 ± 8.2	no observable cytotoxicity
O=C1c2ccccc2-c2c3c(cc4ccnc1c24)OCO3 [Compound 4, liriodenine]	7.9 µg/mL and 28.7 µM	4.1 µg/mL and 14.9 µM	–	–	2.0	–	–	1.9	–	–	–	–
c1ccc2c(c1)C[C@H]1NCCc3cc4c(c-2c31)OCO4 [Compound 5, anonaine]	5.2 µg/mL and 19.6 µM	1.2 µg/mL and 4.5 µM	–	–	> 83	–	–	4.2	–	–	–	–
COc1cc2c(cc1OC)-c1c(OC)c(OC)cc3ccnc(c13)C2=O [Compound 6, oxoglaucine]	20.8 µg/mL and 59.2 µM	9.1 µg/mL and 25.9 µM	–	–	> 11	–	–	2.3	–	–	–	no observable cytotoxicity
C=C1C(=O)O[C@H]2[C@H]1[C@H](OC(C)=O)CC(=C)[C@H](OO)CC[C@@]1(C)O[C@H]21 [Compound 7, peroxyferolide]	–	–	–	3.2 ± 0.6	0.5	9.5 ± 1.8	4.3 ± 1.2	0.7	12.7 ± 3.5	6.2 ± 0.1	18.3 ± 0.3	–
C=C1C(=O)O[C@@H]2C3O[C@]3(C)CC/C=C(\C)C[C@@H](OC(C)=O)[C@@H]12 (stereo partly drawn) [Compound 8, lipiferolide]	–	–	–	1.4 ± 0.2	0.8	4.6 ± 0.7	2.3 ± 0.1	1.3	7.5 ± 0.3	1.8 ± 0.7	5.9 ± 2.3	–
asimilobine [Compound 1]	–	–	–	> 100	> 83	> 300	5.8 ± 1.3	4.8	21.7 ± 6.3	1.2 ± 0.1	4.5 ± 0.3	–
